Measured values taken from patent publication US20130171224A1, “TREATMENT OF BIOFILMS” (priority 2010, published 2013).

Assays:
Type in all cases: cell-based
[1] = tested on: Staphylococcus aureus ATCC6538 biofilm; assay: Combinational effects between ionic silver and polyphosphate (FIC) on NUNC biofilms; parameters: MIC in combination (A) / MIC in combination (B): unit not given beside the values; details: 24 hour S. aureus biofilm
Method: (§1) The bacteria used in this study were Staphylococcus aureus ATCC6538, Candida albicans ATCC10231 and Pseudomonas aeruginosa ATCC9027. Pure cultures were maintained on nutrient agar at 37° C. The NUNC-TSP transferable solid phase screening system (NUNC, Roskilde, Denmark) was used to generate up to 96 reproducible biofilms in a microtitre plate. Briefly, a suspension of each bacteria was prepared in 0.9% saline solution and adjusted to a McFarland's standard no. 1.0. This bacterial suspension was then diluted 1:30 in sterile TSB and 150 μl aliquots aseptically transferred to a 96 well Calgary device. […] Biofilms were generated as described previously. […] Sigma-Aldrich, Germany) was prepared in water (40 mg/ml) and filter sterilised (0.22 μm). Concentrations of polyphosphate were prepared horizontally across the NUNC 96 well plate, whilst ionic silver was prepared vertically. […] This permitted a diverse array of drug concentration combinations to be tested in a single investigation.

[2] = tested on: Pseudomonas aeruginosa ATCC9027 biofilm; assay: as above; parameters: MIC in combination (A) / MIC in combination (B): unit not given beside the values; details: for MIC alone mg/ml (A): agent A alone; for MIC in combination (A): agent A in combination with B; for MIC alone mg/ml (B): agent B alone; for MIC in combination (B): agent B in combination with A
Method: as §1

[3] = tested on: Candida albicans ATCC10231 biofilm; assay: as above; parameters: MIC in combination (A) / MIC in combination (B): unit not given beside the values; details: 72 hour C. albicans biofilm
Method: as §1

[4] = tested on: Staphylococcus aureus ATCC6538 biofilm; assay: Challenge of NUNC-TSP biofilms to polyphosphate (MIC, MBC, MBEC)
Method: (§2) The bacteria used in this study were Staphylococcus aureus ATCC6538, Candida albicans ATCC10231 and Pseudomonas aeruginosa ATCC9027. Pure cultures were maintained on nutrient agar at 37° C. The NUNC-TSP transferable solid phase screening system (NUNC, Roskilde, Denmark) was used to generate up to 96 reproducible biofilms in a microtitre plate. Briefly, a suspension of each bacteria was prepared in 0.9% saline solution and adjusted to a McFarland's standard no. 1.0. This bacterial suspension was then diluted 1:30 in sterile TSB and 150 μl aliquots aseptically transferred to a 96 well Calgary device. Plates were incubated for 24 and 72 hours and then submerged in 150 μl 0.9% saline solution to remove planktonic bacteria from the biofilm surface. A stock solution of polyphosphate (80 mg/ml) was prepared in distilled water and filter sterilised (0.22 μm). This was subsequently diluted 1:2 in triplicate across the wells in TSB to a final concentration of 0.04 mg/ml. Each well also consisted of positive controls (TSB only in absence of antimicrobial agent) and negative controls. NUNC solid phase lids were subsequently transferred to this challenge plate and incubated overnight (37° C.). Wells were visually inspected for turbidity signifying bacterial growth. The minimum inhibitory concentration was defined as the lowest concentration of polyphosphate to prevent bacterial growth. Aliquots of wells (10 μl) showing no visual signs of turbidity were transferred to fresh TSB stocks and incubated for a further 8 hours (37° C.). This allowed the determination of the minimum bactericidal concentration (MBC). Subsequent to this, challenged NUNC peg lids were transferred to a 96 well recovery plate containing TSB media only. Plates were incubated overnight and visualised for bacterial growth. This allowed the determination of the minimum biofilm eradication concentration (MBEC). Any growth in the media corresponded to planktonic bacteria seeding the media from a viable biofilm. Absence of turbidity therefore signified bacterial eradication at this respective concentration of polyphosphate.

[5] = tested on: Pseudomonas aeruginosa ATCC9027 biofilm; assay: as above
Method: as §2

[6] = 24 hour monospecies S. aureus biofilm
[7] = 24 hour monospecies P. aeruginosa biofilm

polyphosphate
FIC (A) [1]: 0.012 | MIC alone mg/ml (A) ([1]; agent A alone): 1.25 mg/mL | MIC in combination (A) ([1]; agent A in combination with B): 0.015 | FIC (A) ([2]; 24 hour P. aeruginosa biofilm): 0.125 | MIC alone mg/ml (A) ([2]; 24 hour P. aeruginosa biofilm): 5 mg/mL | MIC in combination (A) ([2]; 24 hour P. aeruginosa biofilm): 0.625 | FIC (A) ([2]; 72 hour P. aeruginosa biofilm): 0.5 | MIC alone mg/ml (A) ([2]; 72 hour P. aeruginosa biofilm): 80 mg/mL | MIC in combination (A) ([2]; 72 hour P. aeruginosa biofilm): 40 | FIC (A) [3]: 0.006 | MIC alone mg/ml (A) ([3]; agent A alone): 5 mg/mL | MIC in combination (A) ([3]; agent A in combination with B): 0.03 | MBC [4, 6]: 10000 µg/mL | MBEC [4, 6]: 40 to 80 mg/mL | MIC [4, 6]: 1250 µg/mL | MIC ([4]; 72 hour S. aureus biofilm): 20000 µg/mL | MBC [5, 7]: >80000 µg/mL | MBEC [5, 7]: >80 mg/mL | MIC [5, 7]: 5000 µg/mL | MIC ([5]; 72 hour P. aeruginosa biofilm): 80000 µg/mL

O=[N+]([O-])[O-].[Ag+] [silver nitrate, reference compound]
FIC (B) [1]: 1 | MIC alone mg/ml (B) ([1]; agent B alone): 0.015 mg/mL | MIC in combination (B) ([1]; agent B in combination with A): 0.015 | FIC (B) ([2]; 24 hour P. aeruginosa biofilm): 0.0625 | MIC alone mg/ml (B) ([2]; 24 hour P. aeruginosa biofilm): 10 mg/mL | MIC in combination (B) ([2]; 24 hour P. aeruginosa biofilm): 0.625 | FIC (B) ([2]; 72 hour P. aeruginosa biofilm): 0.1 | MIC alone mg/ml (B) ([2]; 72 hour P. aeruginosa biofilm): 0.6 mg/mL | MIC in combination (B) ([2]; 72 hour P. aeruginosa biofilm): 0.07 | FIC (B) [3]: 0.428 | MIC alone mg/ml (B) ([3]; agent B alone): 0.07 mg/mL | MIC in combination (B) ([3]; agent B in combination with A): 0.03
